# Experimental data published in US20070122341A1, “Benzylideneaniline derivatives and their radioisotope labeled compounds for binding and imaging of beta-amyloid plaques” (SEOUL NATIONAL UNIVERSITY INDUSTRY FOUNDATION, priority 2005, published 2007).
# Several values for one entry are separate records, joined by “and”; a condition that tells them apart may be missing. Identical values can stand only once.
# Tests used:
# [1] = Biodistribution in normal mice; assay type: in vivo; settings: 18F-labeled compounds, tail vein injection, ICR male mice; ratio of brain uptake (% ID/g) at 2 min over 30 min
# Experimental: Biodistribution study of the ^18F-labeled compounds of Example 7 was performed with ICR male mice (weight range 27-28 g). 0.1 mL of a saline solution containing each ^18F-labeled benzylideneaniline compound A, B, C, D, E or F (37-74 kBq) was injected through the tail vein. The mice were sacrificed by decapitation at 2 min and 30 min time points post injection. The organs of interest, including blood, muscle, fat, heart, lung, liver, spleen, stomach, intestine, brain and bone, were separated and weighed, and the remaining radioactivity was counted with a NaI well counter.
# Aβ1-40 aggregates = target: T1, Aβ1-40 aggregates (Homo sapiens, UniProt P05067); assay: In vitro binding assay with Aβ1-40 aggregates, inhibition of [125I]3'-I-BTA-1 binding; settings: for affinity to Aβ1-40 (in words): conclusion from Ki values of Table 2; for Ki: unlabeled compounds, Aβ1-40 aggregates 20 nM, [125I]3'-I-BTA-1 0.04 nM, 3 hr room temperature, Ki calculated from IC50
# T1 construct: purchased Sigma
# T1 sequence (P05067 672-711): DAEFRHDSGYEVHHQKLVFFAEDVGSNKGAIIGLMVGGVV
# Experimental: Aggregated peptides were prepared using the solid form of peptides Aβ1-40 (purchased from Sigma) by a literature method (Klunk, W. E.; Wang, Y.; Huang, G-F.; Debnath, M. L.; Holt D. P.; Mathis, C. A. Uncharged thioflavin-T derivatives bind to amyloid-beta protein with high affinity and readily enter the brain. Life Sci. 2001, 69(13), […]). The aggregated Aβ1-40 peptide was aliquoted and stored at −70° C. Binding studies were performed according to the procedure described in the literature with some modifications (Zhuang, Z.-P.; Kung, M.-P.; Wilson, A.; Lee, C.-W.; Plossl, K.; Hou, C.; Holtzman, D. M.; Kung, H. F.; Structure-activity relationship of imidazo[1,2-a]pyridines as ligands for detecting β-amyloid plaques in the brain. J. Med. Chem. 2003; 46(2), 237-243). The Ki values of benzylideneaniline derivatives were evaluated with Aβ1-40 aggregates.
# The reaction mixtures containing 100 μL of Aβ^1-40 aggregates (20 nM in the final mixture), 100 μL of benzylideneaniline derivatives (10^−5-10^−10 M in 50% ethanol), 100 μL of [^125I]3′-I-BTA-1 in 50% ethanol (0.04 nM in the final mixture), and 700 μL of phosphate buffered saline (pH=7.2) were incubated for 3 hr at room temperature, filtered through Whatman GF/B glass filters and washed twice with 3 mL of 10% EtOH. The filters were counted in a gamma-counter. Nonspecific binding was determined by reacting in the presence of 10 μM stilbene.
compound,measurement,setting,value
"CNc1ccc(/N=C/c2ccc(F)cc2)cc1 [B, N-(4-fluorobenzylidene)-N′-methylbenzene-1,4-diamine]",Brain uptake ratio,[1],5.4 ± 0.5
same,melting point,,106 to 107 °C
same,affinity to Aβ1-40 (in words),Aβ1-40 aggregates,have affinity to Aβ1-40
same,Ki,Aβ1-40 aggregates,1.04 µM
"CN(C)c1ccc(/N=C/c2ccc(F)cc2)cc1 [C, N-(4-fluorobenzylidene)-N′,N′-dimethylbenzene-1,4-diamine]",Brain uptake ratio,[1],2.9 ± 0.5
same,melting point,,191 to 192 °C
same,affinity to Aβ1-40 (in words),Aβ1-40 aggregates,have affinity to Aβ1-40
same,Ki,Aβ1-40 aggregates,0.149 µM
"Nc1ccc(/N=C/c2ccc(F)cc2)cc1 [Compound A, N-(4-fluorobenzylidene)benzene-1,4-diamine]",Brain uptake ratio,[1],8.7 ± 1.7
same,melting point,,169 to 170 °C
same,affinity to Aβ1-40 (in words),Aβ1-40 aggregates,have affinity to Aβ1-40
same,Ki,Aβ1-40 aggregates,0.304 µM
Oc1ccc(/N=C/c2ccc(F)cc2)cc1 [D],Brain uptake ratio,[1],24.3 and 24.3 ± 4.6
same,melting point,,148 to 149 °C
same,affinity to Aβ1-40 (in words),Aβ1-40 aggregates,low binging affinity
same,Ki,Aβ1-40 aggregates,> 10 µM
"COc1ccc(/N=C/c2ccc(F)cc2)cc1 [E, (4-fluorobenzylidene)-(4-methoxyphenyl)amine]",Brain uptake ratio,[1],4.2 ± 0.9
same,melting point,,92 to 93 °C
same,Ki,Aβ1-40 aggregates,> 10 µM
"O=C(O)c1cc(/N=C/c2ccc(F)cc2)ccc1O [F, 5-[(4-fluorobenzylidene)amino]-2-hydroxybenzoic acid]",Brain uptake ratio,[1],11.0 ± 2.0
same,Ki,Aβ1-40 aggregates,> 10 µM
